Data from paper PMC9319741, “A Novel ERK2 Degrader Z734 Induces Apoptosis of MCF–7 Cells via the HERC3/p53 Signaling Pathway” (Molecules, 2022).

Key:
[1] = target: T1, ERK2 (Homo sapiens, UniProt P28482); assay: IMAP TR-FRET enzymatic kinase (cascade) assay; type: biochemical
T1 construct: gene MAPK1

[2] = target: T2, ERK1 (Homo sapiens, UniProt P27361); assay: IMAP TR-FRET enzymatic kinase (cascade) assay; type: biochemical
T2 construct: gene MAPK3
T2 sequence (P27361 2-379): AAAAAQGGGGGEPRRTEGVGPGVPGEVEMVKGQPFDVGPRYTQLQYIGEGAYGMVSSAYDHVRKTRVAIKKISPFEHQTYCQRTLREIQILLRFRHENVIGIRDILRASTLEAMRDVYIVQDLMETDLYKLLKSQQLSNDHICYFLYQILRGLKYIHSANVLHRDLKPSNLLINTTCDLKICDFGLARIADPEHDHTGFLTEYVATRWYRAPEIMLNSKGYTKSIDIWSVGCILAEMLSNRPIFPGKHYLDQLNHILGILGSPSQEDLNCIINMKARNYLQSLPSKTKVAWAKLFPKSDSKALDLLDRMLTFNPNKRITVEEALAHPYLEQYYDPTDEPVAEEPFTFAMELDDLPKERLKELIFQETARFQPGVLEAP

T1 sequence (P28482 2-360): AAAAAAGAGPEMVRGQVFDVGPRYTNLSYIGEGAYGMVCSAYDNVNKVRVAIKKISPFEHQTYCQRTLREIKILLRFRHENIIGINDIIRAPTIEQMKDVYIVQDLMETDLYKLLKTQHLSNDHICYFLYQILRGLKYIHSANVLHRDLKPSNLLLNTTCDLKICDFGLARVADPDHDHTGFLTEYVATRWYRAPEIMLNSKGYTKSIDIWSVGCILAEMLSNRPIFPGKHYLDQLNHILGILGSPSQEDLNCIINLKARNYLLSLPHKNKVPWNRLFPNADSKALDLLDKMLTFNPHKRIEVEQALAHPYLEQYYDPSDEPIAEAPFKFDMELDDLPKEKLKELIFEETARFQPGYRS

CC(=O)NC(CC(=O)N(c1ccccc1)c1nc2ccccc2s1)c1ccccc1 (centres unmarked) [Z734]
IC50 [1]: 3 nM | IC50 [2]: 9 nM
